For orientation: Papp A→B means the apparent permeability from the apical to the basolateral side of a cell layer. Read a low Papp A→B as poor permeation. As usually defined, the Papp B→A is how fast a substance crosses the layer from the basolateral side. One may read the efflux ratio as a quotient of directional permeabilities that is used to spot active efflux. As a reminder, the IC50 is the concentration needed to halve the response being measured. A low value points to higher potency.

Tested on in one data set: not listed separately
Kind of data set: Evaluation of P-gp efflux: Caco-2 permeability. The conditions noted are these: human, Caco-2, pH 7.4. How it is done:
(§1) At this stage of growth, cell monolayers were fully polarized and differentiated.
(§2) The permeability assay buffer was Hanks Balanced Salt Solution containing 10 mM HEPES and 15 mM glucose at a pH of 7.4. The dosing buffer contained 5 μM metoprolol (positive control), 5 μM atenolol (negative control) and 100 μM lucifer yellow. The buffer in the receiver chamber also contained 1% bovine serum albumin (BSA). The dosing solution concentration was 5 μM in the assay buffer. Digoxin (20 μM) was used as Pgp substrate control.
(§3) The known Pgp inhibitor was co-dosed at 50 μM with compound at 5 μM.
(§4) Cell monolayers were dosed on the apical side (A-to-B) or basolateral side (B-to-A) and incubated at 37° C. in a shaker (65 rpm). Samples were taken from the donor and receiver chambers at 120 minutes. Each determination was performed in duplicate.
(§5) Narrow-window mass extraction LC/MS analysis was performed for all samples from this study using a Waters Xevo quadrupole time-of-flight (QTof) mass spectrometer, to determine relative peak areas of parent compound. The percent of transported drug was calculated based on these peak areas, relative to the initial, dosing concentration.
A general note: Caco-2 cells form a polarised layer with tight junctions and transporters.
Compound `C[C@H]1O[C@@H](O[C@H]2[C@@H](O)C[C@H](O[C@H]3[C@@H](O)C[C@H](O[C@H]4CC[C@@]5(C)[C@H](CC[C@@H]6[C@@H]5C[C@@H](O)[C@]5(C)[C@@H](C7=CC(=O)OC7)CC[C@]65O)C4)O[C@@H]3C)O[C@@H]2C)C[C@H](O)[C@@H]1O` [Digoxin] came in with a Papp A→B at 120 min, 5 µM of 0.75 ×10⁻⁶ cm/s and a Papp B→A at 120 min, 5 µM of 22.7 ×10⁻⁶ cm/s. In turn, `COc1cc2nc(N3CCN(C(=O)c4ccco4)CC3)nc(N)c2cc1OC` [Prazosin] yielded a Papp A→B at 120 min, 5 µM of 21.7 ×10⁻⁶ cm/s and a Papp B→A at 120 min, 5 µM of 34.7 ×10⁻⁶ cm/s. On the same counts, the results for `CC(C)NCC(O)COc1cccc2ccccc12` (stereo not drawn) [Propranolol] are 21.1 ×10⁻⁶ cm/s and 15.8 ×10⁻⁶ cm/s.

A further data set has as its system P-gp. Kind of data set: Evaluation of P-gp efflux: Caco-2 permeability. The conditions noted are these: human, Caco-2, pH 7.4. How it is done: as §1, §2, §3, §4, §5
For the compound `C[C@H]1O[C@@H](O[C@H]2[C@@H](O)C[C@H](O[C@H]3[C@@H](O)C[C@H](O[C@H]4CC[C@@]5(C)[C@H](CC[C@@H]6[C@@H]5C[C@@H](O)[C@]5(C)[C@@H](C7=CC(=O)OC7)CC[C@]65O)C4)O[C@@H]3C)O[C@@H]2C)C[C@H](O)[C@@H]1O` [Digoxin], the efflux ratio at 120 min, 5 µM came out at 30.4. For the compound `COc1cc2nc(N3CCN(C(=O)c4ccco4)CC3)nc(N)c2cc1OC` [Prazosin], the efflux ratio at 120 min, 5 µM worked out at 1.59. On to `CC(C)NCC(O)COc1cccc2ccccc12` (stereo not drawn) [Propranolol], for which the efflux ratio at 120 min, 5 µM amounted to 0.75.

The target of the next data set is EGFR (T790M) (Homo sapiens, UniProt P00533, T790M, form not given). Kind of data set: Kinase HotSpot profiling (33P-ATP filter binding). In kind it is biochemical.
EGFR (T790M), sequence (P00533 whole entry T790M, form open): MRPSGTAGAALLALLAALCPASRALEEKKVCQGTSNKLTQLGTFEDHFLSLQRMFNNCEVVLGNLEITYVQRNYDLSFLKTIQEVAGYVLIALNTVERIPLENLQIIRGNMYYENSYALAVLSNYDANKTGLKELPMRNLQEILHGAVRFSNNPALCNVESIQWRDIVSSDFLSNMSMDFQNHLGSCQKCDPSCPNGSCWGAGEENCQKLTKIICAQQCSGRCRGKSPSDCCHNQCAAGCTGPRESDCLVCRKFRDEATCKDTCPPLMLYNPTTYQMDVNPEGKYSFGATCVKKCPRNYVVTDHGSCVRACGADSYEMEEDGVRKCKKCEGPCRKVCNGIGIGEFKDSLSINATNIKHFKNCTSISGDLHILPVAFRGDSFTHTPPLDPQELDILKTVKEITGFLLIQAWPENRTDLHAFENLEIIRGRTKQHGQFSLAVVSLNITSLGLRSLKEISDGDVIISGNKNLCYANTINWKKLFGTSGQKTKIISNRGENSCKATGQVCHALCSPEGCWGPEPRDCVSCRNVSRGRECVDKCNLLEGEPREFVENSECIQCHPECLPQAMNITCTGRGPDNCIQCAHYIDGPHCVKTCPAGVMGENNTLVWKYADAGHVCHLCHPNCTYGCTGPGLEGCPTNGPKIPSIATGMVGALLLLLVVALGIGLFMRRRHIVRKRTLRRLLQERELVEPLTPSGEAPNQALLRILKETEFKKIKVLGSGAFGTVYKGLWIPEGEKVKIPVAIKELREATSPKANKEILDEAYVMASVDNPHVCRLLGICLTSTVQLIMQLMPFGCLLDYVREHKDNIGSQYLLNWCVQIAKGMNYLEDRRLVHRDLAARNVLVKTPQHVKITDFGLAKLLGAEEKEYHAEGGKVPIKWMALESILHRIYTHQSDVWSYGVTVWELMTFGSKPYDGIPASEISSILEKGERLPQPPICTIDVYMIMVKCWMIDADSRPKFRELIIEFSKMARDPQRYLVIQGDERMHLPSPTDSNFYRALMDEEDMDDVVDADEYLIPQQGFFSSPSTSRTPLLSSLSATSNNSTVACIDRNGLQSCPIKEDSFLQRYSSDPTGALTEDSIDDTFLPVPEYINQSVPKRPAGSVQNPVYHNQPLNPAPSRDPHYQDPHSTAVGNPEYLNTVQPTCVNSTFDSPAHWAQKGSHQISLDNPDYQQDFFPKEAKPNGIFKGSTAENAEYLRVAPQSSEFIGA
Conditions: not given
How it is done: Base Reaction buffer; 20 mM Hepes (pH 7.5), 10 mM MgCl2, 1 mM EGTA, 0.02% Brij35, 0.02 mg/ml BSA, 0.1 mM Na3VO4, 2 mM DTT, 1% DMSO • Required cofactors are added individually to each kinase reaction
1. The indicated substrate was prepared in fresh Base Reaction Buffer.
2. Any required cofactors were added to the substrate solution above.
3. Indicated kinase was added into the substrate solution and gently mixed.
4. Compounds in DMSO were added into the kinase reaction mixture by Acoustic technology (Echo550; nanoliter range) and incubated for 20 minutes at room temperature.
5. 33P-ATP (specific activity 10 μCi/μl) was added into the reaction mixture to initiate the reaction.
6. The kinase reaction was incubated for 2 hours at room temperature
7. Reactions were spotted onto P81 ion exchange paper.
8. Kinase activity was detected by filter-binding method.
IC50 (nM) concentrations are illustrated in Table 5. This assay confirms that compounds of the application are effective inhibitors of the target EGFR receptors.
For the compound `CN(C)C/C=C/C(=O)Nc1cc2c(Nc3ccc(Cl)c(Cl)c3F)ncnc2cc1OCCOC(F)F` [Example I-2, (E)-N-[4-(3,4-dichloro-2-fluoro-anilino)-7-[2-(difluoromethoxy)ethoxy]quinazolin-6-yl]-4-(dimethylamino)but-2-enamide], the IC50 came out at 16.4 nM.

In the case of `O=C(/C=C/CN1CCOCC1)Nc1cc2c(Nc3ccc(Cl)c(Cl)c3F)ncnc2cc1OCCOC(F)F` [Example I-3, (E)-N-[4-(3,4-dichloro-2-fluoro-anilino)-7-[2-(difluoromethoxy)ethoxy]quinazolin-6-yl]-4-morpholino-but-2-enamide], the IC50 turned out to be 5.56 nM. In turn, `O=C(/C=C/CN1CCC(OC(F)F)CC1)Nc1cc2c(Nc3ccc(F)c(Cl)c3)ncnc2cc1OCCOC(F)F` [Example I-22, (E)-N-[4-(3-chloro-4-fluoro-anilino)-7-[2-(difluoromethoxy)ethoxy]quinazolin-6-yl]-4-[4-(difluoromethoxy)-1-piperidyl]but-2-enamide] showed an IC50 of 13.1 nM.

The compound `O=C(/C=C/CN1CCCCC1)Nc1cc2c(Nc3ccc(F)c(Cl)c3F)ncnc2cc1OCCOC(F)F` [Example I-10, (E)-N-[4-(3-chloro-2,4-difluoro-anilino)-7-[2-(difluoromethoxy)ethoxy]quinazolin-6-yl]-4-(1-piperidyl)but-2-enamide] showed an IC50 of 0.156 nM. In the case of `COc1cc2ncnc(Nc3ccc(F)c(Cl)c3)c2cc1NC(=O)/C=C/CN1CCC(OC(F)F)CC1` [Example I-18, (E)-N-[4-(3-chloro-4-fluoro-anilino)-7-methoxy-quinazolin-6-yl]-4-[4-(difluoromethoxy)-1-piperidyl]but-2-enamide], the IC50 was determined as 62.8 nM. `O=C(/C=C/CN1CC(F)(F)C1)Nc1cc2c(Nc3ccc(F)c(Cl)c3F)ncnc2cc1OCCOC(F)F` [Example I-16, (E)-N-[4-(3-chloro-2,4-difluoro-anilino)-7-[2-(difluoromethoxy)ethoxy]quinazolin-6-yl]-4-(3,3-difluoroazetidin-1-yl)but-2-enamide]: the IC50 came out at 13.7 nM. This IC50 is about 4.6-fold lower than that of the compound before. As to `CN(C)C/C=C/C(=O)Nc1cc2c(Nc3cccc(Cl)c3F)ncnc2cc1OCCOC(F)F` [Example I-5, (E)-N-[4-(3-chloro-2-fluoro-anilino)-7-[2-(difluoromethoxy)ethoxy]quinazolin-6-yl]-4-(dimethylamino)but-2-enamide], the IC50 came to 0.707 nM. The compound `CN(C)C/C=C/C(=O)Nc1cc2c(Nc3ccc(F)c(Cl)c3F)ncnc2cc1OCCOC(F)F` [Example I-9, (E)-N-[4-(3-chloro-2,4-difluoro-anilino)-7-[2-(difluoromethoxy)-ethoxy]quinazolin-6-yl]-4-(dimethylamino)but-2-enamide] gave an IC50 of 0.0597 nM.

For `C#Cc1cccc(Nc2ncnc3cc(OCCOC(F)F)c(NC(=O)/C=C/CN(C)C)cc23)c1F` [Example I-25, (E)-N-[7-[2-(difluoromethoxy)ethoxy]-4-(3-ethynyl-2-fluoro-anilino)quinazolin-6-yl]-4-(dimethylamino)but-2-enamide], the IC50 came out at 0.679 nM.

In the case of `O=C(/C=C/CN1CCOCC1)Nc1cc2c(Nc3cccc(Cl)c3F)ncnc2cc1OCCOC(F)F` [Example I-7, (E)-N-[4-(3-chloro-2-fluoro-anilino)-7-[2-(difluoromethoxy)-ethoxy]quinazolin-6-yl]-4-morpholino-but-2-enamide], the IC50 stood at 10.5 nM. Regarding `O=C(/C=C/CN1CCC(OC(F)F)CC1)Nc1cc2c(Nc3cccc(Cl)c3F)ncnc2cc1OCCOC(F)F` [Example I-8, (E)-N-[4-(3-chloro-2-fluoro-anilino)-7-[2-(difluoromethoxy)-ethoxy]quinazolin-6-yl]-4-[4-(difluoromethoxy)-1-piperidyl]but-2-enamide], the IC50 was 79.5 nM. Same read-out and setting: then `COc1cc2ncnc(Nc3ccc(Cl)c(Cl)c3F)c2cc1NC(=O)/C=C/CN1CCC(OC(F)F)CC1` [Example I-17, (E)-N-[4-(3,4-dichloro-2-fluoro-anilino)-7-methoxy-quinazolin-6-yl]-4-[4-(difluoromethoxy)-1-piperidyl]but-2-enamide], with 817 nM.
